Source: patent US12479847B2 (DANA-FARBER CANCER INSTITUTE, INC., priority 2019, dated 2025)

Key:
panel of 468 kinases [1] = molecular target: T1, panel of 468 kinases (Homo sapiens, UniProt Q8TF76); test: KINOMEscan (ScanMAX) kinase profiling; assay type: binding; details: HASPIN; 1 μM; read-out: % control
T1 construct: purchased KINOMEscan (ScanMAX) service
T1 sequence (Q8TF76 1-798): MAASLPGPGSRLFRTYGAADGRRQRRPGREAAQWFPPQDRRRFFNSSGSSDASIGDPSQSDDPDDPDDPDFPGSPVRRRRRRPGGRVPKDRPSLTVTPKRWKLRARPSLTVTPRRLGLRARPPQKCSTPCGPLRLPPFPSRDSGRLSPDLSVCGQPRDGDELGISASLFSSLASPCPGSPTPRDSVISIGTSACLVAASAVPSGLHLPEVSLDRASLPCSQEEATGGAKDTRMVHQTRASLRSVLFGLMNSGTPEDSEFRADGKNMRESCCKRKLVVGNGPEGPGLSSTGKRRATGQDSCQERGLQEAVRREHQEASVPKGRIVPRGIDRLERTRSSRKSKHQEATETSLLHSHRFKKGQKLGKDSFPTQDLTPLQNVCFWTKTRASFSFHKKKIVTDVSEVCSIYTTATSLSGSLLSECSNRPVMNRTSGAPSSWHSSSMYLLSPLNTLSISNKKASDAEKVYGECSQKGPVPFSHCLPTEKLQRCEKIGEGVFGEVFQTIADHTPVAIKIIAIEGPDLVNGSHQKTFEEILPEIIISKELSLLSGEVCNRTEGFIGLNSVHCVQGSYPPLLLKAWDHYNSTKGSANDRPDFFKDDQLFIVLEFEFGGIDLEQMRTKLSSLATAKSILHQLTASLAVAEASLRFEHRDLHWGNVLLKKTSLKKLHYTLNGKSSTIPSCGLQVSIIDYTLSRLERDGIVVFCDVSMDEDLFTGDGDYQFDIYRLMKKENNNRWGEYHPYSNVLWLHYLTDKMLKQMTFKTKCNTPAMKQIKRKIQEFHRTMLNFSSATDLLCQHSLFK

panel of 468 kinases [2] = molecular target: T2, panel of 468 kinases (Homo sapiens, UniProt O95835); test: KINOMEscan (ScanMAX) kinase profiling; assay type: binding; details: LATS1; 1 μM; read-out: % control
T2 construct: purchased KINOMEscan (ScanMAX) service
T2 sequence (O95835 1-1130): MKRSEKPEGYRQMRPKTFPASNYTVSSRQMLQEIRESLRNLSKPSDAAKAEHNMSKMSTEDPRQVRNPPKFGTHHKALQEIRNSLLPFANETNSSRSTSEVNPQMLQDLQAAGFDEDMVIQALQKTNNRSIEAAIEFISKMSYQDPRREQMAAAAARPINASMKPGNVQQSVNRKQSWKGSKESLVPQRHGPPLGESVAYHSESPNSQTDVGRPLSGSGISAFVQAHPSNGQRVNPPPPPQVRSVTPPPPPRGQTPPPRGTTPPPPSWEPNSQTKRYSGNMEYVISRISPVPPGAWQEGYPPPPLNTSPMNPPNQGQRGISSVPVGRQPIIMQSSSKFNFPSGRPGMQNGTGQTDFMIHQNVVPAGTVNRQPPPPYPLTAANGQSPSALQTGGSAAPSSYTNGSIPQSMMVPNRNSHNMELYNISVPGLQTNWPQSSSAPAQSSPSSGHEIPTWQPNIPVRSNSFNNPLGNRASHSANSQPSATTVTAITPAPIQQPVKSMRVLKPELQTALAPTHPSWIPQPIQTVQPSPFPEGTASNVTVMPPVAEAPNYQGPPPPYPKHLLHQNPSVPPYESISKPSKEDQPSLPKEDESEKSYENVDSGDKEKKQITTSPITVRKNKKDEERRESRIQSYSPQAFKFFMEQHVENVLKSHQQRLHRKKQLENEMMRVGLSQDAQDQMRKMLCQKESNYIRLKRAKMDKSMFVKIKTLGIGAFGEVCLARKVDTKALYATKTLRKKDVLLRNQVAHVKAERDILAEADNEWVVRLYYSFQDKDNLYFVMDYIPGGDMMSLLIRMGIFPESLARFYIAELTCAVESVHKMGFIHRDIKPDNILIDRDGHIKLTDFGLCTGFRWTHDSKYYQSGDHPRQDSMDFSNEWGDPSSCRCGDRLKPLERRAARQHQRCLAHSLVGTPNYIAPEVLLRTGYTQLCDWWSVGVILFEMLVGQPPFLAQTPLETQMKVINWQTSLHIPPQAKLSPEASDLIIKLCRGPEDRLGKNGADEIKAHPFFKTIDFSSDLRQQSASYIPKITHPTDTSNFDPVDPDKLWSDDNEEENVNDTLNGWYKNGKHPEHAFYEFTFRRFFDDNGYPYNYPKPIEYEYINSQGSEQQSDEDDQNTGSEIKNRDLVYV

SMILES	remaining binding at 1 µM (panel of 468 kinases [1])	remaining binding at 1 µM (panel of 468 kinases [2])
CNc1nc(Nc2ccc(S(=O)(=O)N3CCC(N4CCOCC4)CC3)cc2OC)nc2[nH]cc(Cl)c12 [Compound 12, 5-chloro-N2-(2-methoxy-4-((4-morpholinopiperidin-1-yl)sulfonyl)phenyl)-N4-methyl-7H-pyrrolo[2,3-d]pyrimidine-2,4-diamine]	29%	100%
CNc1nc(Nc2ccc(C(=O)N3CCC(N4CCOCC4)CC3)c3c2OCO3)nc2[nH]cc(Cl)c12 [Compound 75, (7-((5-chloro-4-(methylamino)-7H-pyrrolo[2,3-d]pyrimidin-2-yl)amino)benzo[d][1,3]dioxol-4-yl)(4-morpholinopiperidin-1-yl)methanone]	25%	100%
CNc1nc(Nc2ccc(P3(=O)CCN(C4CCOCC4)CC3)cc2OC)nc2[nH]cc(Cl)c12 [Compound 77, 4-(4-((5-chloro-4-(methylamino)-7H-pyrrolo[2,3-d]pyrimidin-2-yl)amino)-3-methoxyphenyl)-1-(tetrahydro-2H-pyran-4-yl)-1,4-azaphosphinane 4-oxide]	35%	100%
